Assay results published in patent US20060057669A1, “Inactive transcription factor tif-ia and uses thereof” (priority 2002, published 2006).

Tests used:
[1] = test system: HEK293T cells; test: Quantitative fluorimetric viability assay with calcein-AM; format: cell-based; conditions: 24, 36, 48 and 60 hr after transfection; 2 μM calcein-AM
Method: (B) Quantitative fluorimetric viability assay with calcein-AM. HEK293T cells were transfected with TIF-IA or the indicated point mutants. […] Viable cells were measured 24, 36, 48 and 60 hr after transfection by incubation with […] calcein-AM. The gradual increase in fluorescence intensity was recorded with a fluorescence multi-well plate reader for 20 min with an excitation wavelength of 485 nm and an emission wavelength of 530 nm. The proliferation rate of mock-transfected cells and cells overexpressing TIF-IA is shown at the left. Plots show the accumulation of calcein fluorescence (arbitrary units) against time. Growth rates calculated from linear regression curves are shown at the right. Values are presented as the mean±SD from three independent experiments performed in duplicates.
Conversion of calcein-AM (calcein acetoxymethyl ester, (CN Bioscience GmbH, Bad Soden, Germany) to calcein was used to measure cell proliferation. 12 hr after transfection, HEK293T cells were seeded to 96-well micro-plates at 1×10^4 cells/well. After 24, 36, 48 and 60 hr, cells were washed with PBS, incubated with 2 μM calcein-AM, and the gradual increase in fluorescence intensity within the cells was recorded by a fluorescence multi-well plate reader (CytoFluor Series 4000/TC, PerSeptive Biosystems, (Applied Biosystems, Forster City, USA) for 20 min in 1 min intervals. Excitation wavelength used for measurements of fluorescence was 485 nm with a bandwidth of 20 nm; emission wavelength was 530 nm with a bandwidth of 25 nm. Under the experimental conditions used, there is a direct correlation between the accumulation ratio of intracellular calcein fluorescence and the number of viable cells. The data from three independent experiments were analyzed by Sigmaplot and expressed as the mean±standard deviation. For statistical analysis, student's t test was used. Differences with a P<0.01 were considered statistically significant.
Given the functional significance of ERK/RSK-directed TIF-IA phosphorylation on Pol I transcription, mutations that enhance or abrogate TIF-IA activity may have a positive or negative effect on cell growth. To test this, HEK293T cells were transfected with cDNAs encoding wild-type or mutant TIF-IA which harbor single or double point mutations at S649 and S633. The expression of TIF-IA was estimated on Western blots and the cellular growth rate was measured by calcein-AM staining. Calcein-AM is a non-fluorescent, hydrophobic compound that is rapidly hydrolyzed by intracellular esterases releasing hydrophilic fluorescent calcein. Thus, cellular calcein fluorescence correlates with the amount of viable cells. […] Cells expressing FLAG-tagged wild-type or mutant TIF-IA were stained with FITC-conjugated anti-FLAG antibodies, identified by FACS and cell numbers were calculated by measuring the ratio of stained cells versus an internal standard. […] Conversely, the number of cells expressing TIF-IAS649A was 33% lower than the control. […] Taken together, the results reveal a striking correlation between phosphorylation of TIF-IA at serine 649, cellular rRNA synthetic activity and cell cycle progression.

[2] = test system: HEK293T cells; test: Images of transfected HEK293T cells; format: cell-based; conditions: images taken after 48 h
Method: HEK293T cells were transfected with TIF-IA or TIFIAS649A, respectively, and images were taken after 48 h.

[3] = test system: Pol I transcription; test: In vitro transcription: TIF-IA mutants restoring rDNA transcription of nuclear extract from density-arrested FM3A cells; format: biochemical, murine; conditions: S633/S649 mutants; 20 and 40 ng
Outline: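 FLAG-tagged wild-type or mutant TIF-IA, immunopurified from HEK293T cells (20/40 or 30/60 ng), added to nuclear extract of density-arrested FM3A cells with pMr600/EcoRI rDNA template. Reaction at pH 8.0 with [α-32P]UTP, 60 min at 30 °C. RNA resolved on non-denaturing 5% polyacrylamide gels.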

[4] = test system: HEK293T cells; test: Relative DNA content of sorted cells by FACS analysis; format: cell-based
Method: (§1) HEK293T cells were harvested 60 hr after transfection with pcDNA-FLAG-TIF-IA, fixed with 2% paraformaldehyde and permeabilized with 0.1% Triton X-100 in PBS. Transfected cells were labeled by incubation for 1 hr with 2 μg/ml FITC-conjugated anti-M2 antibodies (Sigma) and subsequently stained with 20 ag/ml propidium iodide (Sigma). Cell were analyzed with a FACSCan™ flow cytometer in the presence of CaliBRITE™ beads (Becton Dickinson, San Jose, USA). The number of cells expressing FLAG-TIF-IA was calculated from the ratio between FITC-positive cells and counted beads.
Given the functional significance of ERK/RSK-directed TIF-IA phosphorylation on Pol I transcription, mutations that enhance or abrogate TIF-IA activity may have a positive or negative effect on cell growth. To test this, HEK293T cells were transfected with cDNAs encoding wild-type or mutant TIF-IA which harbor single or double point mutations at S649 and S633. The expression of TIF-IA was estimated on Western blots and the cellular growth rate was measured by calcein-AM staining. […] Thus, cellular calcein fluorescence correlates with the amount of viable cells. […] Cells expressing FLAG-tagged wild-type or mutant TIF-IA were stained with FITC-conjugated anti-FLAG antibodies, identified by FACS and cell numbers were calculated by measuring the ratio of stained cells versus an internal standard. […]

[5] = test system: HEK293T cells; test: Cell enumeration by dual-parameter flow cytometry; format: cell-based; conditions: 60 hr after transfection
Method: (C) Cell enumeration by flow cytometry. HEK293T cells expressing wild-type TIF-IA or the S649 mutants were harvested 60 hours after transfection, stained with FITC-conjugated anti-FLAG M2 antibodies and analyzed by dual-parameter flow cytometry in a FACScan™ flow cytometer in the presence of CaliBRITE™ calibration beads. 60,000 events were recorded from each sample. The number of cells expressing FLAG-TIF-IA was calculated from the ratio between FITC-positive cells and counted beads.
as §1, with “Transfected cells were labeled by incubation for 1 hr with 2 μg/ml FITC-conjugated anti-M2 antibodies (Sigma) and subsequently stained with 20 ag/ml propidium iodide (Sigma).” left out
Given the functional significance of ERK/RSK-directed TIF-IA phosphorylation on Pol I transcription, mutations that enhance or abrogate TIF-IA activity may have a positive or negative effect on cell growth. […] The expression of TIF-IA was estimated on Western blots and the cellular growth rate was measured by calcein-AM staining. […] Thus, cellular calcein fluorescence correlates with the amount of viable cells. […]

[6] = test system: HEK293T cells; test: Trypan blue staining; format: cell-based; conditions: data not shown
[7] = test system: Pol I transcription; test: In vitro transcription: TIF-IA mutants added to nuclear extract from exponentially growing FM3A cells; format: biochemical, murine; conditions: 20 and 40 ng added to 15 ug nuclear extract
Method: 20 and 40 ng of the indicated TIF-IA mutants were added to 15 ug nuclear extract from exponentially growing FM3A cells and rDNA transcription was assayed.
Nuclear extracts were prepared from exponentially growing (8×10^5 cells/ml), density-arrested or PD98059-treated (CN Bioscience, Bad Soden, Germany) 40 μM, 0.5 hr) or rapamycin-treated FM3A cells (ATCC, Manassas, USA). 25 μl assays contained 50 ng of template DNA (pMr600/EcoRI), 30 μg nuclear extract proteins and 12 mM Hepes-KOH, [pH8.0], 0.1 mM EDTA, 5 mM MgCl2, 80 mM KCl, 10 mM creatine phosphate, 12% (v/v) glycerol, 0.66 mM each of ATP, GTP and CTP, 0.01 mM UTP and 0.5 μCi [α-^32P]UTP (5000 Ci/mmol). After incubation for 60 min at 30° C., RNA was extracted and analyzed on non-denaturing 5% polyacrylamide gels
Given that phosphorylation of TIF-IA at serine 649 is essential for transcription, excess of TIF-IAS649A should impair Pol I transcription. To test this, we examined the effect of exogenous wild-type and mutant TIF-IA on transcriptional activity of extracts from exponentially growing cells.

In the case of “TIF-IAS649A: TIF-IA point mutant, serine residue at position 649 replaced by an alanine residue”, the “cellular growth rate by calcein-AM staining” value [1] is reported as “impaired cell growth”, the “cell growth on images” value [2] is reported as “retards cell growth” and the “capability to rescue transcription of extracts from density-arrested cells” value [3] is reported as “abolished TIF-IA activity”. The “decrease of G2/M-phase cells” value [4] was 25%, the “number of cells lower than the control” value [5] was 33% and the “cell viability as cause of growth inhibition” value [6] was “not due to decreased cell viability”. The “effect on transcriptional activity of extracts from exponentially growing cells” value [7] was “acts as a dominant-negative inhibitor of Pol I transcription” and the “effect on transcriptional activity of extracts from exponentially growing cells” value ([7]; listed as S649A) was “suppressed transcription well below the basal level”.
